Data reported in US9388153B2, “Secondary amines as therapeutic agents” (Allergan, Inc., priority 2013, dated 2016).

Legend:
EP2 [1] = target: T1, EP2 (Homo sapiens, UniProt P43116); assay: EP2 binding (Ki); details: NA = Not Active; read-out: EP2 Data (EC50 in nM) Ki
Text: (§1) U.S. patent application publication No. 20070129552, published on Jun. 7, 2007, incorporated by reference herein, describes the methods used to obtain the in vitro data in Table 1 below.

EP2 [2] = target: T1, EP2; assay: EP2 cAMP functional assay; assay type: cell-based; details: NA = Not Active
Text: as §1

EP4 = EP4 (Homo sapiens, UniProt P35408); assay: EP4 binding (KI); details: NA = Not Active; read-out: EP4 data (EC50 in nM) KI
Text: as §1

T1 sequence (P43116 whole entry): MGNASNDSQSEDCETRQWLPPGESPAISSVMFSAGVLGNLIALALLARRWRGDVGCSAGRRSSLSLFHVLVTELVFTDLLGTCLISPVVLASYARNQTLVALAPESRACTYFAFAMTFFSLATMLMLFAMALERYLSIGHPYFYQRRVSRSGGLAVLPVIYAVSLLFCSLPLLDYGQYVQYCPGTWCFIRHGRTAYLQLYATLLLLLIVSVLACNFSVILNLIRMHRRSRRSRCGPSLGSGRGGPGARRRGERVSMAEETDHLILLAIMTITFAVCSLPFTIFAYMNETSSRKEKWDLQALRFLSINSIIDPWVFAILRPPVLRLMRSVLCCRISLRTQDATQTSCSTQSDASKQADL
EP4, sequence (P35408 whole entry): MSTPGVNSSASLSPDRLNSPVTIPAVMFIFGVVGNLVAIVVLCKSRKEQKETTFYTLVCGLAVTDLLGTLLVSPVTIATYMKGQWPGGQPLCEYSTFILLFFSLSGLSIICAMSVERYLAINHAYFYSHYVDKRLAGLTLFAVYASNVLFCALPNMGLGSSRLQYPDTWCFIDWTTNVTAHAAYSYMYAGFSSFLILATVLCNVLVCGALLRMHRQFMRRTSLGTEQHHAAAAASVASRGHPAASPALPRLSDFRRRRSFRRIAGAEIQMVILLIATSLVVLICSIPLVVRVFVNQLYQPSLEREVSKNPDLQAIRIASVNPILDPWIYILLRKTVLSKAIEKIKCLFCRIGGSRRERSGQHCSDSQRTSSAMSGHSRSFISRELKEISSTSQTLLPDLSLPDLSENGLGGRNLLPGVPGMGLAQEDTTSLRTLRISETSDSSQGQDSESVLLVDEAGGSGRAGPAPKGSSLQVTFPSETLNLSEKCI

Ki (EP2 [1]) [nM] | EC50 (EP2 [2]) [nM] | Ki (EP4) [nM] | Structure (SMILES)
80 | 11 | 3050 | O=C(O)COc1cccc(NC2CCc3ccc(-c4cccc(F)c4)cc32)c1 (stereo not drawn) [Example 1, 2-(3-((6-(3-Fluorophenyl)-2,3-dihydro-1H-inden-1-yl)amino)phenoxy)acetic acid]
1810 | 697 | 7320 | CN(c1cccc(OCC(=O)O)c1)C1CCc2ccc(-c3cccc(F)c3)cc21 (stereo not drawn) [Example 3, 2-(3-((6-(3-Fluorophenyl)-2,3-dihydro-1H-inden-1-yl)(methyl)amino)phenoxy)acetic acid]
3940 | 8300 | 6640 | CCN(c1cccc(OCC(=O)O)c1)C1CCc2ccc(-c3cccc(F)c3)cc21 (stereo not drawn) [Example 4, 2-(3-(Ethyl(6-(3-fluorophenyl)-2,3-dihydro-1H-inden-1-yl)amino)phenoxy)acetic acid]
144 | 747 |  | O=C(O)COc1cccc(OC2CCc3ccc(-c4cccc(F)c4)cc32)c1 (stereo not drawn) [Example 5, 2-(3-((6-(3-Fluorophenyl)-2,3-dihydro-1H-inden-1-yl)oxy)phenoxy)acetic acid]
104 | 438 | 3630 | O=C(O)COc1cccc(NC2CCCc3ccc(-c4cccc(F)c4)cc32)c1 (stereo not drawn) [Example 6, 2-(3-((7-(3-Fluorophenyl)-1,2,3,4-tetrahydronaphthalen-1-yl)amino)phenoxy)acetic acid]
 |  | 6280 | OCCOc1cccc(NC2CCCc3ccc(-c4cccc(F)c4)cc32)c1 (stereo not drawn) [Example 7, 2-(3-((7-(3-Fluorophenyl)-1,2,3,4-tetrahydronaphthalen-1-yl)amino)phenoxy)ethanol]
13 | 0.6 | 7990 | O=C(O)COc1cccc(NC2COc3ccc(-c4cccc(F)c4)cc32)c1 (stereo not drawn) [Example 8, 2-(3-((5-(3-Fluorophenyl)-2,3-dihydrobenzofuran-3-yl)amino)phenoxy)acetic acid]
